Where two headings read alike, the source gives them in different places.
Key:
MC38 colon cancer = tested on: MC38 colon cancer
Procedure: (a) Experimental design. Wildtype BMDMs were stimulated with IL-4/IL-13 with or without MAOI treatment. MAOIs (monoamine oxidase inhibitors) studied were phenelzine (Phe: 20 μM), clorgyline (Clo: 20 μM), moclobemide (Moc: 200 μM), and pirlindole (Pir: 20 μM). NT, no MAOI treatment. (b) FACS analyses of ROS levels in BMDMs. (c) FACS analyses of CD206 expression on BMDMs. (d,e) QPCR analyses of Chi313 (d) and Arg1 (e) mRNA expression in BMDMs. f-j, Studying the TAM-related cancer immunotherapy potential of MAOI treatment in a B16-OVA melanoma syngeneic mouse tumour model (n=7-8). (f) Experimental design. B6 wildtype mice were treated with clodronate liposomes (Clod) to serve as TAM-depleted experimental mice, or treated with vehicle liposomes (Veh) to serve as TAM-intact control mice. Phe, phenelzine treatment: NT, no phenelzine treatment. (g) Tumour growth. (h) Tumour volume at day 18. (i) FACS analyses of CD206 expression on TAMs of TAM-intact experimental mice. (j) FACS analyses of intracellular Granzyme B production in tumour-infiltrating CD8^+ T cells of all experimental mice. k-o, Studying the cancer therapy potential of MAOI treatment in combination with anti-PD-1 treatment in the B16-OVA melanoma and MC38 colon cancer syngeneic mouse tumour models (n=5). (k) Experimental design. […]
Tumour-bearing mice treated with vehicle liposomes (Veh) were included as a control. […] FACS quantifications of TAMs (gated as CD45.2^+CD11b^+Ly6G^−Ly6C^−/lowF4/80^+ cells of total TIIs) are presented (n=7-8). b-f, Studying B16-OVA and MC38 tumour growth in B6 wildtype mice with or without phenelzine treatment (Phe or NT). […]
B16-OVA melanoma cells (1×10^6 per animal) or MC38 colon cancer cells (5×10^5 per animal) were subcutaneously (s.c.) injected into experimental mice to form solid tumours. […] During an experiment, tumour growth was monitored twice per week by measuring tumour size using a Fisherbrand™ Traceable™ digital caliper (Thermo Fisher Scientific): tumour volumes were calculated by formula 1/2×L×W^2.

B16-OVA melanoma = B16-OVA melanoma syngeneic mouse tumour model; format: in vivo
Procedure: (§1) (a) Experimental design. Wildtype BMDMs were stimulated with IL-4/IL-13 with or without MAOI treatment. MAOIs (monoamine oxidase inhibitors) studied were phenelzine (Phe: 20 μM), clorgyline (Clo: 20 μM), moclobemide (Moc: 200 μM), and pirlindole (Pir: 20 μM). NT, no MAOI treatment. (b) FACS analyses of ROS levels in BMDMs. (c) FACS analyses of CD206 expression on BMDMs. (d,e) QPCR analyses of Chi313 (d) and Arg1 (e) mRNA expression in BMDMs. f-j, Studying the TAM-related cancer immunotherapy potential of MAOI treatment in a B16-OVA melanoma syngeneic mouse tumour model (n=7-8). (f) Experimental design. B6 wildtype mice were treated with clodronate liposomes (Clod) to serve as TAM-depleted experimental mice, or treated with vehicle liposomes (Veh) to serve as TAM-intact control mice. Phe, phenelzine treatment: NT, no phenelzine treatment. (g) Tumour growth. (h) Tumour volume at day 18. (i) FACS analyses of CD206 expression on TAMs of TAM-intact experimental mice. (j) FACS analyses of intracellular Granzyme B production in tumour-infiltrating CD8^+ T cells of all experimental mice. k-o, Studying the cancer therapy potential of MAOI treatment in combination with anti-PD-1 treatment in the B16-OVA melanoma and MC38 colon cancer syngeneic mouse tumour models (n=5). (k) Experimental design. Tumour-bearing mice were treated with anti-PD-1 antibody (aPD-1) or isotype control (Iso), together with or without phenelzine (Phe) treatment. NT, no Phe treatment. (l) B16-OVA tumour growth. (m) B16-OVA tumour volume at day 18. (n) MC38 tumour growth. (o) MC38 tumour volume at day 27. Representative of 3 experiments. All data are presented as the mean±SEM. ns, not significant, *P<0.05, **P<0.01, and ***P<0.001, by I-way ANOVA (b-e, h, j, m, o) or by Student's t test (i).
Tumour-bearing mice treated with vehicle liposomes (Veh) were included as a control. The experimental design is shown in main FIG. 5F. FACS quantifications of TAMs (gated as CD45.2^+CD11b^+Ly6G^−Ly6C^−/lowF4/80^+ cells of total TIIs) are presented (n=7-8). b-f, Studying B16-OVA and MC38 tumour growth in B6 wildtype mice with or without phenelzine treatment (Phe or NT). (b) Experimental design. (c) B16-OVA tumour growth (n=10). (d) B16-OVA tumour volume at day 18. (e) MC38 tumour growth (n=6). (f) MC38 tumour volume at day 27. g-k, Studying B16-OVA and MC38 tumour growth in NSG mice with or without phenelzine treatment (Phe or NT: n=5). (g) Experimental design. (h) B16-OVA tumour growth. (i) B16-OVA tumour volume at day 18. (j) MC38 tumour growth. (k) MC38 tumour volume at day 21. Representative of 2 (a-f) and 4 (g-k) experiments.
B16-OVA melanoma cells (1×10^6 per animal) or MC38 colon cancer cells (5×10^5 per animal) were subcutaneously (s.c.) injected into experimental mice to form solid tumours. In some experiments, mice received intraperitoneal (i.p.) injection of phenelzine (30 mg/kg/day) to block MAO-A activity. In some experiments, mice received i.p. injection of clodronate liposomes (200 μl/animal, twice per week) to deplete TAMs: mice received i.p. injection of vehicle liposomes ([…], twice per week) were included as controls. In some experiments, mice received i.p. injection of anti-mouse PD-1 antibodies (300 μg/animal, twice per week) to block PD-1: mice received i.p. injection of isotype antibodies were included as controls. During an experiment, tumour growth was monitored twice per week by measuring tumour size using a Fisherbrand™ Traceable™ digital caliper (Thermo Fisher Scientific): tumour volumes were calculated by formula 1/2×L×W^2.

[1] = tested on: wildtype BMDMs (bone marrow-derived macrophages); assay: In vitro WT BMDM IL-4/IL-13-induced polarization culture with MAOI treatment; format: cell-based, mouse; conditions: IL-4/IL-13-stimulated WT BMDMs, 24 h
Procedure: as §1
To generate BMDMs, BM cells were collected from femurs and tibias of Maoa WT mice and Maoa KO mice, and were cultured in C10 medium containing with 20% of L929-conditional medium in a 10-cm dish (2×10^6 cells per ml: 12 ml per dish) for 6 days. At day 6, the resulting BMDMs were collected and reseeded in a 6-well plate (1×10^6 cells per ml: 2 ml per well) in C10 medium for 24 hours, in the presence or absence of recombinant murine IL-4 (10 ng/ml) (Peprotech, 200-04) and IL-13 (10 ng/ml) (Peprotech, 200-13) to induce BMDM immunosuppressive polarization.
In some experiments, MAOIs were added to the Maoa WT BMDM polarization culture 30 minutes prior to adding recombinant murine IL-4 and IL-13, to block MAO-A activity during BMDM polarization. MAOIs studied were phenelzine (Phe, 20 μM) (Sigma-Aldrich), clorgyline (Clo, 20 μM) (Sigma-Aldrich), moclobemide (Moc, 200 μM) (Sigma-Aldrich), and pirlindole (Pir, 20 μM) (R&D Systems). At 24 hours after IL-4/IL-13 stimulation, BMDMs were collected for analysis.
Cells were stained with surface marker antibodies, washed with PBS, then resuspended in pre-warmed PBS (1×10^6 cells/ml/tube) containing 1 μM CM-H2DCFDA (Thermo Fisher Scientific, C6827). After 15 minutes incubation at room temperature, cells were immediately washed with cold PBS followed by flow cytometry analysis. ROS levels were measured by oxidation of the CM-H2DCFDA probes that can be read out as the fluorescence intensity at the FITC/488 channel of a flow cytometer. Single cell RNA sequencing (scRNAseq) scRNASeq was used to analyze the gene expression profiles of TIIs. B16-OVA tumours were harvested from Maoa WT and Maoa KO mice to prepare TII suspensions (10 tumours were combined for each group). TII suspensions were then sorted using a FACSAria II flow cytometer to purify immune cells (gated as DAPI-CD45.2^+ cells). Sorted TIIs were immediately delivered to the Technology Center for Genomics & Bioinformatics (TCGB) facility at UCLA for library construction and sequencing.

[2] = NSG mice, phenelzine vs no treatment

For NNCCc1ccccc1 [phenelzine], the “progression of pre-established MC38 solid tumours” value (MC38 colon cancer; B6 wildtype mice, phenelzine vs no treatment (FIG. 11e,f)) was “effectively suppressed”, the “growth of MC38 tumours in immunodeficient NSG mice” value (MC38 colon cancer; [2]) was “did not suppress” and the “progression of pre-established MC38 solid tumours” value (MC38 colon cancer; combination study with anti-PD-1 antibody or isotype control (FIG. 5n,o), level comparable to anti-PD-1 alone) was “significantly suppressed”. For the same compound, the “progression of pre-established B16-OVA solid tumours” value (B16-OVA melanoma; B6 wildtype mice, phenelzine vs no treatment (FIG. 11b-d)) was “effectively suppressed”, the “growth of B16-OVA tumours in immunodeficient NSG mice” value (B16-OVA melanoma; [2]) was “did not suppress” and the “CD206 expression on TAMs (FACS)” value (B16-OVA melanoma; TAMs from phenelzine-treated TAM-intact B16-OVA tumour-bearing mice) was “decreased expression”. For the same compound, the “progression of pre-established B16-OVA solid tumours” value (B16-OVA melanoma; combination study with anti-PD-1 antibody or isotype control (FIG. 5k-m), level comparable to anti-PD-1 alone) was “significantly suppressed”, the “Granzyme B production in tumour-infiltrating CD8+ T cells (FACS)” value (B16-OVA melanoma; phenelzine-treated B16-OVA tumour-bearing mice) was “increased production” and the B16-OVA tumour growth (B16-OVA melanoma; tumour prevention model, B6 wildtype mice, TAM-intact, phenelzine 30 mg/kg/day i.p.) was “effectively suppressed”. For the same compound, the “B16-OVA tumour growth in TAM-depleted mice” value (B16-OVA melanoma; tumour prevention model, B6 wildtype mice, TAMs depleted with clodronate liposomes, phenelzine vs no phenelzine) was “No tumour growth difference”, the “ROS levels in BMDMs (FACS)” value ([1]; MAOI 20 μM added 30 min before cytokines) was “efficiently reduced” and the “Arg1 mRNA expression in BMDMs (QPCR)” value ([1]; MAOI 20 μM) was “decreased expression”. For the same compound, the “CD206 expression on BMDMs (FACS)” value ([1]; MAOI 20 μM) was “decreased expression”, the “Chi313 mRNA expression in BMDMs (QPCR)” value ([1]; MAOI 20 μM) was “decreased expression” and the “immunosuppressive polarization of BMDMs” value ([1]; MAOI 20 μM) was “suppressed”.
